Assay results: patent publication US20250011364A1, “TUMOR TISSUE-PENETRATING PEPTIDE, SPECIFICALLY BINDING TO NEUROPILIN 1, FOR DRUG DELIVERY TO TUMOR, AND USE THEREOF” (CELLICON LAB INC., priority 2022, published 2025)

What was measured:
AsPC-1 cells = assay: MTT assay: improvement of anticancer efficacy of doxorubicin; format: cell-based; settings: 48 hours, compared to the group treated with only doxorubicin (FIG. 1)
Procedure: In order to examine the function of the present invention as a tumor tissue-penetrating peptide, the effect of the present invention on improving the anticancer efficacy of doxorubicin was evaluated. Specifically, the effect of a tumor tissue-penetrating peptide consisting of any one amino acid sequence selected from SEQ ID NO: 5 to SEQ ID NO: 8 of the present invention and SEQ ID NO: 1 to SEQ ID NO: 4, derivatives thereof, on improving the anticancer efficacy of doxorubicin was evaluated.
Specifically, in order to evaluate the effect of improving anticancer efficacy, AsPC-1 cells were used to perform the MTT assay, and cell viability was analyzed and compared (FIG. 1).
Pancreatic cancer cells (AsPC-1) were cultured in 96-well plates at 2×10^5 cells/ml for 24 hours, then treated with samples at various concentrations, and cultured for another 48 hours. […] After 4 hours, the MTT solution was removed, DMSO was added to each well to dissolve formazan at 37° C. for 30 minutes, and then the absorbance was measured at 570 nm using a microplate reader (Molecular Devices Spectra MAX, Sunnyvale, CA, USA). In all experiments, the results were statistically processed by taking the average value for three wells for each concentration, and expressed as a relative viability (%) compared to that in the group treated with no sample.

AsPC-1 xenograft [1] = assay: Tumor tissue penetration of doxorubicin, confocal microscopy of tumor slides; format: in vivo, mice; settings: peptide 5 μM/kg iv, doxorubicin 10 mg/kg iv 10 minutes later, tumor extracted 24 hours later; vs doxorubicin only and doxorubicin + iRGD (FIG. 4)
Procedure: In order to examine the effect of the peptide of SEQ ID NO: 8 of the present invention on improving the tumor tissue-penetrating ability of a physiologically active substance, tumor-induced AsPC-1 xenograft mice were treated with only doxorubicin, doxorubicin and iRGD as a positive control, or with tumor tissue-penetrating peptide, and the effect was compared.
Specifically, iRGD or tumor tissue-penetrating peptide (5 μM/kg) was injected intravenously (iv) into AsPC-1 xenograft mice, doxorubicin (Dox; 10 mg/kg) was injected intravenously 10 minutes later, and then the tumor was extracted 24 hours later to construct paraffin slides. The slides were stained with anti-CD31-FITC (vascular endothelial cell marker), and Dox (red)/CD31 (FITC) was analyzed using a confocal microscope.

AsPC-1 xenograft [2] = assay: Tumor tissue penetration of FITC-albumin, confocal microscopy; format: in vivo, mice; settings: FITC-albumin iv in conjugation/combination with peptide vs singly, tumor extracted 1, 3 and 24 hours later (FIG. 5)
Procedure: In order to examine the effect of the peptide of SEQ ID NO: 8 of the present invention on improving the tumor tissue-penetrating ability of physiologically active substances, FITC-albumin was injected intravenously (iv) singly or in conjugation/combination with the tumor tissue-penetrating peptide (five minutes) into tumor-induced AsPC-1 xenograft mice, the tumor was extracted 1, 3, and 24 hours later, and analysis was performed using a confocal microscope (albumin molecular weight: about 70 kDa).

NRP-1 = NRP-1 (Homo sapiens, UniProt O14786); assay: Competitive ELISA assay, inhibition of VEGF 165 binding to NRP-1; settings: NRP-1 treated with peptide and VEGF, competitive ELISA (FIG. 6)
Sequence of NRP-1 (O14786 22-923): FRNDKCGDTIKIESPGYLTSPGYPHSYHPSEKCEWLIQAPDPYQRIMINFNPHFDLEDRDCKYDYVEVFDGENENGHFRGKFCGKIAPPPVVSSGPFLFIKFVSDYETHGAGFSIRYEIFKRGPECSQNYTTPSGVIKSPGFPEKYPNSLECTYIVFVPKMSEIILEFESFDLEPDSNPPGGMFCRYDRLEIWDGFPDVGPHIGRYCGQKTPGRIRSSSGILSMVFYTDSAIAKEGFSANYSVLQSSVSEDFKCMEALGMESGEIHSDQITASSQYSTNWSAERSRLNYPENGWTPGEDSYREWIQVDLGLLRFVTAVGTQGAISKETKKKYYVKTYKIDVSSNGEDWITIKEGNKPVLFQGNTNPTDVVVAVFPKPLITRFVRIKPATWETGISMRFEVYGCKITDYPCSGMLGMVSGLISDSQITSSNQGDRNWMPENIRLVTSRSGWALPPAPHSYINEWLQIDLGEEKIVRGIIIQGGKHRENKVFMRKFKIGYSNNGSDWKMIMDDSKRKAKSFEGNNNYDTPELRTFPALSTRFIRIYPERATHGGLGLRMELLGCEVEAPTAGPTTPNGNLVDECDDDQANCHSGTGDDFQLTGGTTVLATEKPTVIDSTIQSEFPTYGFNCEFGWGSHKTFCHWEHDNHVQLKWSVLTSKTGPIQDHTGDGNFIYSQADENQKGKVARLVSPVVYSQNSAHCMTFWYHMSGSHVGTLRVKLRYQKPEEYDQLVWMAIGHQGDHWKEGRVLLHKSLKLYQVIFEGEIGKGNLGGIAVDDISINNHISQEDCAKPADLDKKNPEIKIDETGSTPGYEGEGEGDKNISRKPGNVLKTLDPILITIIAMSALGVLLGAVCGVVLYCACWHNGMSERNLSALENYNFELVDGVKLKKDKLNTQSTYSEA
Description: Therefore, the tumor tissue-penetrating peptide is more likely to bind to NRP-1 competitively, and thus can interfere with neovascularization, and this means that the tumor tissue-penetrating peptide can suppress tumor growth (FIG. 6).

H2N-[Arg-Lys-Leu-Phe-Arg-Lys-Ile-Leu-Lys-Tyr-Leu-Arg]-CO2H (RKLFRKILKYLR) [SEQ ID NO: 8, tumor tissue-penetrating peptide]
effect of improving anticancer efficacy of doxorubicin (cell viability) (AsPC-1 cells): most effective | tumor tissue-penetrating ability of doxorubicin (AsPC-1 xenograft [1]): significantly superior | tumor-penetrating ability of albumin (AsPC-1 xenograft [2]): increased | NRP-1 binding of VEGF165 (NRP-1): decreases
